PubChem BioAssay (NCI)
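Values below derive from 48-hour exposures of cells grown in 96-well plates, with endpoints linearly interpolated between the two concentrations bracketing the appropriate inhibition level. At the TGI there is no net growth.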

Key:
Test in all cases: DTP human tumour cell line panel, 48 h
786-0 renal = system: 786-0 renal
A498 renal = system: A498 renal
A549 NSCLC = system: A549 NSCLC
ACHN renal = system: ACHN renal
BT-549 breast = system: BT-549 breast
CAKI-1 renal = system: CAKI-1 renal
CCRF-CEM leukemia = system: CCRF-CEM leukemia
COLO 205 colon = system: COLO 205 colon
DU-145 prostate = system: DU-145 prostate
EKVX NSCLC = system: EKVX NSCLC
HCC-2998 colon = system: HCC-2998 colon
HCT-116 colon = system: HCT-116 colon
HCT-15 colon = system: HCT-15 colon
HL-60(TB) leukemia = system: HL-60(TB) leukemia
HOP-62 NSCLC = system: HOP-62 NSCLC
HOP-92 NSCLC = system: HOP-92 NSCLC
HS 578T breast = system: HS 578T breast
HT29 colon = system: HT29 colon
IGROV1 ovarian = system: IGROV1 ovarian
K-562 leukemia = system: K-562 leukemia
KM12 colon = system: KM12 colon
LOX IMVI melanoma = system: LOX IMVI melanoma
M14 melanoma = system: M14 melanoma
MALME-3M melanoma = system: MALME-3M melanoma
MCF7 breast = system: MCF7 breast
MDA-MB-231 breast = system: MDA-MB-231 breast
MDA-MB-435 = system: MDA-MB-435
MDA-N = system: MDA-N
MOLT-4 leukemia = system: MOLT-4 leukemia
NCI-H226 lung = system: NCI-H226 lung
NCI-H23 lung = system: NCI-H23 lung
NCI-H460 lung = system: NCI-H460 lung
NCI/ADR-RES ovarian = system: NCI/ADR-RES ovarian
OVCAR-4 ovarian = system: OVCAR-4 ovarian
OVCAR-5 ovarian = system: OVCAR-5 ovarian
OVCAR-8 ovarian = system: OVCAR-8 ovarian
PC-3 prostate = system: PC-3 prostate
RPMI-8226 leukemia = system: RPMI-8226 leukemia
RXF 393 renal = system: RXF 393 renal
SF-268 CNS = system: SF-268 CNS
SF-295 CNS = system: SF-295 CNS
SF-539 CNS = system: SF-539 CNS
SK-MEL-2 melanoma = system: SK-MEL-2 melanoma
SK-MEL-28 melanoma = system: SK-MEL-28 melanoma
SK-MEL-5 melanoma = system: SK-MEL-5 melanoma
SK-OV-3 ovarian = system: SK-OV-3 ovarian
SN12C renal = system: SN12C renal
SNB-19 CNS = system: SNB-19 CNS
SNB-75 CNS = system: SNB-75 CNS
SW-620 colon = system: SW-620 colon
T-47D breast = system: T-47D breast
TK-10 renal = system: TK-10 renal
U251 CNS = system: U251 CNS
UACC-257 melanoma = system: UACC-257 melanoma
UACC-62 melanoma = system: UACC-62 melanoma
UO-31 renal = system: UO-31 renal
NCI-H522 lung = system: NCI-H522 lung
OVCAR-3 ovarian = system: OVCAR-3 ovarian
SR leukemia = system: SR leukemia

Measured: TGI

COc1ccc(-c2nc3ccccc3c(=S)n2OC(C)=O)cc1
> 25 µM: 786-0 renal | A498 renal | A549 NSCLC | ACHN renal | BT-549 breast | CAKI-1 renal | CCRF-CEM leukemia | COLO 205 colon | DU-145 prostate | EKVX NSCLC | HCC-2998 colon | HCT-116 colon | HCT-15 colon | HOP-62 NSCLC | HOP-92 NSCLC | HS 578T breast | HT29 colon | IGROV1 ovarian | K-562 leukemia | KM12 colon | LOX IMVI melanoma | M14 melanoma | MCF7 breast | MDA-MB-231 breast | MDA-MB-435 | MDA-N | MOLT-4 leukemia | NCI-H226 lung | NCI-H23 lung | NCI-H460 lung | NCI/ADR-RES ovarian | OVCAR-4 ovarian | OVCAR-5 ovarian | OVCAR-8 ovarian | PC-3 prostate | RPMI-8226 leukemia | RXF 393 renal | SF-268 CNS | SF-295 CNS | SF-539 CNS | SK-MEL-2 melanoma | SK-MEL-28 melanoma | SK-MEL-5 melanoma | SK-OV-3 ovarian | SN12C renal | SNB-19 CNS | SNB-75 CNS | SW-620 colon | T-47D breast | TK-10 renal | U251 CNS | UACC-257 melanoma | UACC-62 melanoma | UO-31 renal
17.2 µM: HL-60(TB) leukemia
20.4 µM: MALME-3M melanoma

O=C(c1ccccc1)c1ccc2c(c1)NC(=O)c1ccccc1SSc1ccccc1C(=O)N2
> 100 µM: 786-0 renal | A498 renal | A549 NSCLC | ACHN renal | BT-549 breast | CAKI-1 renal | CCRF-CEM leukemia | COLO 205 colon | DU-145 prostate | EKVX NSCLC | HCT-116 colon | HCT-15 colon | HL-60(TB) leukemia | HOP-62 NSCLC | HOP-92 NSCLC | HS 578T breast | HT29 colon | IGROV1 ovarian | K-562 leukemia | KM12 colon | LOX IMVI melanoma | M14 melanoma | MALME-3M melanoma | MDA-MB-231 breast | MDA-MB-435 | MDA-N | MOLT-4 leukemia | NCI-H226 lung | NCI-H23 lung | NCI-H460 lung | NCI-H522 lung | NCI/ADR-RES ovarian | OVCAR-3 ovarian | OVCAR-4 ovarian | OVCAR-5 ovarian | OVCAR-8 ovarian | PC-3 prostate | RPMI-8226 leukemia | RXF 393 renal | SF-268 CNS | SF-295 CNS | SF-539 CNS | SK-MEL-2 melanoma | SK-MEL-28 melanoma | SK-MEL-5 melanoma | SK-OV-3 ovarian | SN12C renal | SNB-19 CNS | SR leukemia | SW-620 colon | T-47D breast | TK-10 renal | U251 CNS | UACC-257 melanoma | UACC-62 melanoma | UO-31 renal
